Assay results from patent US11958861B2, “Spirocyclic lactams as JAK2 V617F inhibitors” (Incyte Corporation, priority 2021, dated 2024).
pIC50: −log10 of the molar value. Structures can show the parent of a compound that is named as a salt.

Key:
[1] = molecular target: T1, pseudo-kinase domain (JH2, amino-acids 536-812) of human V617F mutant JAK2 (Homo sapiens, UniProt O60674, F794H/V617F/W659A/W777A); experiment: JAK2 LanthaScreen JH2-V617F Binding Assay; details: 1 hour at 25° C.
T1 construct: pseudo-kinase domain (JH2, amino-acids 536-812 with 3 surface mutations W659A, W777A, F794H); purchased BPS Bioscience 79498; host or cells: baculovirus expression system
T1 sequence (O60674 536-812 V617F/W659A/W777A/F794H): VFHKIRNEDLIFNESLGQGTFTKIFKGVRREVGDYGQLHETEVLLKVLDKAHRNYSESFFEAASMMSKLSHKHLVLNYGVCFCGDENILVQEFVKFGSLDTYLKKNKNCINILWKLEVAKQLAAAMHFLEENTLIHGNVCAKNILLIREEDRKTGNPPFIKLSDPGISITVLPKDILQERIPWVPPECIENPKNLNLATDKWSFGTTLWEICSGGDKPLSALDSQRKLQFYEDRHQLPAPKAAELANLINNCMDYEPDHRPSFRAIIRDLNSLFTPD
In short: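 Competition of compounds with a fluorescent tracer (50 nM) for the biotinylated domain (0.26 nM), detected via streptavidin-Tb (0.25 nM) after 1 h at 25° C in pH 7.5 Tris buffer containing glycerol, BSA and Brij-35. ATP at 2 mM gave background. IC50 by four-parameter fit.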

[2] = molecular target: T2, pseudo-kinase domain (JH2, amino-acids 536-812) of human Wild Type JAK2 (Homo sapiens, UniProt O60674, F794H/W659A/W777A); experiment: JAK2 LanthaScreen JH2-WT Binding Assay; details: 1 hour at 25° C.
T2 construct: pseudo-kinase domain (JH2, amino-acids 536-812 with 3 surface mutations W659A, W777A, F794H); purchased BPS Bioscience 79463; host or cells: baculovirus expression system
T2 sequence (O60674 536-812 W659A/W777A/F794H): as the sequence (O60674 536-812 V617F/W659A/W777A/F794H) above, with F82V counted along it
In short: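 TR-FRET tracer displacement: IC50 from four-parameter dose-response fit. Reaction: compound, 0.145 nM biotinylated JH2 protein from baculovirus, 0.25 nM streptavidin-Tb and 50 nM tracer, 1 h at 25° C, 50 mM Tris pH 7.5 buffer. 2 mM ATP gave non-specific binding.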

[3] = molecular target: T3, catalytic domain (JH1, amino acids 826-1132) of human JAK2 (Homo sapiens, UniProt O60674); experiment: JAK2 LanthaScreen JH1 Binding Assay; details: 2 hours at 25° C.
T3 construct: catalytic domain (JH1, amino acids 826-1132) of human JAK2; purchased Carna Biosciences 08-445-20N; host or cells: baculovirus expression system
T3 sequence (O60674 826-1132): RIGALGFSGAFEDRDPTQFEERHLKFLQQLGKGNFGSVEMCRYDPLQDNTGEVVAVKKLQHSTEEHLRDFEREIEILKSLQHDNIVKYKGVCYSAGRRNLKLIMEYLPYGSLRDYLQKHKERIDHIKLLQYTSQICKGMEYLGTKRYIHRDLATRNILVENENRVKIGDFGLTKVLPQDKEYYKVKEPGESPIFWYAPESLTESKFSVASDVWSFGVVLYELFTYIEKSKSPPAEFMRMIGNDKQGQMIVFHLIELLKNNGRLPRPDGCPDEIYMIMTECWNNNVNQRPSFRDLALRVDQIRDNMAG
In short: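 FLAG-tagged biotinylated JAK2 JH1 (1.5 nM) incubated with compounds, 50 nM fluorescent tracer and 0.5 nM streptavidin-Tb in Tris pH 7.5 buffer with MgCl2, BSA, DTT, 2 h at 25 °C.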

[4] = molecular target: T4, catalytic domain (JH1, amino acids 808-1132) of human JAK2 (Homo sapiens, UniProt O60674); experiment: JAK2 HTRF Enzyme Activity Assay; assay type: biochemical; details: ATP 30 μM, read-out: ENZ 30UMATP
T4 construct: catalytic domain (JH1, amino acids 808-1132) of human JAK2; His (N); purchased BPS Bioscience 40450; host or cells: baculovirus expression system
T4 sequence (O60674 808-1132): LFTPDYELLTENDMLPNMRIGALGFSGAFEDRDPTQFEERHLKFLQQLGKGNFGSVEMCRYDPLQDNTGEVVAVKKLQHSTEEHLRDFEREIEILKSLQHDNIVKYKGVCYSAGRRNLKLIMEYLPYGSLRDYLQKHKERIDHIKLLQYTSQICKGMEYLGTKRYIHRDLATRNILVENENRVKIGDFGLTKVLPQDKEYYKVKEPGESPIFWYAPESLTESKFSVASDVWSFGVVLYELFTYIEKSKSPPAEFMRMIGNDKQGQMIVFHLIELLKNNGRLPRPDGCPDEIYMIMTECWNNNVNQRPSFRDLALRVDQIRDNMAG
In short: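 His-tagged JAK2 JH1 from baculovirus, 0.015 nM, incubated with compound, ATP at 30 μM or 1 mM and 500 nM biotinylated peptide, pH 7.5, 60 min at 25° C. HTRF read-out via Eu-anti-phosphotyrosine and streptavidin-APC after EDTA stop; IC50 from four-parameter dose-response fit.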

SMILES	pIC50 [1]	pIC50 [2]	pIC50 [3]	pIC50 [4]
CN1C(=O)C2(Cc3ccccc3C2)c2c1cnc1[nH]c(-c3ccc(CN4CCC(S(C)(=O)=O)CC4)cc3)cc21 [Example 57, 6-Methyl-2-(4-((4-(methylsulfonyl)piperidin-1-yl)methyl)phenyl)-1′,3,3′,6-tetrahydro-7H-spiro[dipyrrolo[2,3-b:3′,2′-d]pyridine-8,2′-inden]-7-one]	< 5.60	5.60 to 5.90	< 5.60	< 5.60
[2H]C([2H])([2H])n1ncc2cc(-c3c(-c4cnn(C)c4)[nH]c4ncc5c(c34)C3(CC4(CCN(C(=O)OC)CC4)C3)C(=O)N5C)ccc21 [Example 58, Methyl 6-methyl-2-(1-methyl-1H-pyrazol-4-yl)-1-(1-(methyl-d3)-1H-indazol-5-yl)-7-oxo-6,7-dihydro-3H-dispiro[dipyrrolo[2,3-b:3′,2′-d]pyridine-8,1′-cyclobutane-3′,4″-piperidine]-1″-carboxylate, trifluoroacetate salt]	≥ 7.00	≥ 7.00	5.60 to 5.90	5.60 to 5.90
CCCC(=O)N1CCC2(CC1)CC1(C2)C(=O)N(C)c2cnc3[nH]c(-c4cnn(C)c4)c(-c4ccc5c(cnn5C)c4)c3c21 [Example 59, 1″-Butyryl-6-methyl-1-(1-methyl-1H-indazol-5-yl)-2-(1-methyl-1H-pyrazol-4-yl)-3,6-dihydro-7H-dispiro[dipyrrolo[2,3-b:3′,2′-d]pyridine-8,1′-cyclobutane-3′,4″-piperidin]-7-one, trifluoroacetate salt]	≥ 7.00	≥ 7.00	5.60 to 5.90	5.60 to 5.90
CN(C)C(=O)N1CCC2(CC1)CC1(C2)C(=O)N(C)c2cnc3[nH]c(-c4cnn(C)c4)c(-c4ccc5c(cnn5C)c4)c3c21 [Example 60, N,N,6-Trimethyl-1-(1-methyl-1H-indazol-5-yl)-2-(1-methyl-1H-pyrazol-4-yl)-7-oxo-6,7-dihydro-3H-dispiro[dipyrrolo[2,3-b:3′,2′-d]pyridine-8,1′-cyclobutane-3′,4″-piperidine]-1″-carboxamide, trifluoroacetate salt]	≥ 7.00	≥ 7.00	5.60 to 5.90	5.60 to 5.90
COC(=O)N1CCC2(CC1)CC1(C2)C(=O)N(C)c2cnc3[nH]c(-c4cnn(C)c4)c(-c4ccc5c(cnn5C)c4)c3c21 [Example 61, Methyl 6-methyl-1-(1-methyl-1H-indazol-5-yl)-2-(1-methyl-1H-pyrazol-4-yl)-7-oxo-6,7-dihydro-3H-dispiro[dipyrrolo[2,3-b:3′,2′-d]pyridine-8,1′-cyclobutane-3′,4″-piperidine]-1″-carboxylate, trifluoroacetate salt]	≥ 7.00	≥ 7.00	5.90 to 6.30	5.90 to 6.30
COCCS(=O)(=O)N1CCC2(CC1)CC1(C2)C(=O)N(C)c2cnc3[nH]c(-c4cnn(C)c4)c(-c4ccccc4)c3c21 [Example 62, 1″-((2-Methoxyethyl)sulfonyl)-6-methyl-2-(1-methyl-1H-pyrazol-4-yl)-1-phenyl-3,6-dihydro-7H-dispiro[dipyrrolo[2,3-b:3′,2′-d]pyridine-8,1′-cyclobutane-3′,4″-piperidin]-7-one, trifluoroacetate salt]	≥ 7.00	≥ 7.00	< 5.60	< 5.60
CCCC(=O)N1CCC2(CC1)CC1(C2)C(=O)N(C)c2cnc3[nH]c(-c4ccn(C)c4)c(-c4ccc5c(cnn5C)c4)c3c21 [Example 64, 1″-Butyryl-6-methyl-1-(1-methyl-1H-indazol-5-yl)-2-(1-methyl-1H-pyrrol-3-yl)-3,6-dihydro-7H-dispiro[dipyrrolo[2,3-b:3′,2′-d]pyridine-8,1cyclobutane-3′,4″-piperidin]-7-one, trifluoroacetate salt]	≥ 7.00	≥ 7.00	5.60 to 5.90	5.60 to 5.90
CN1C(=O)C2(CCN(C3(CC#N)CCCC3)CC2)c2c1cnc1[nH]c(-c3cnn(C)c3)c(-c3ccc4c(cnn4C)c3)c21 [Example 73, 2-(1-(6-Methyl-1-(1-methyl-1H-indazol-5-yl)-2-(1-methyl-1H-pyrazol-4-yl)-7-oxo-6,7-dihydro-3H-spiro[dipyrrolo[2,3-b:3′,2′-d]pyridine-8,4′-piperidin]-1′-yl)cyclopentyl)acetonitrile, trifluoroacetate salt]	≥ 7.00	≥ 7.00	6.30 to 7.00	6.30 to 7.00
CN1C(=O)C2(C=CN(C3(CC#N)CC3)C=C2)c2c1cnc1[nH]c(-c3cnn(C)c3)c(-c3ccc4c(cnn4C)c3)c21 [Example 74, 2-(1-(6-Methyl-1-(1-methyl-1H-indazol-5-yl)-2-(1-methyl-1H-pyrazol-4-yl)-7-oxo-6,7-dihydro-1′H,3H-spiro[dipyrrolo[2,3-b:3′,2′-d]pyridine-8,4′-pyridin]-1′-yl)cyclopropyl)acetonitrile, trifluoroacetate salt]	≥ 7.00	≥ 7.00	5.90 to 6.30	5.90 to 6.30
CN1C(=O)C2(CCN(C(C)(C)c3c[nH]nn3)CC2)c2c1cnc1[nH]c(-c3cnn(C)c3)c(-c3ccc4c(cnn4C)c3)c21 [Example 76, 1′-(2-(1H-1,2,3-Triazol-4-yl)propan-2-yl)-6-methyl-1-(1-methyl-1H-indazol-5-yl)-2-(1-methyl-1H-pyrazol-4-yl)-3,6-dihydro-7H-spiro[dipyrrolo[2,3-b:3′,2′-d]pyridine-8,4′-piperidin]-7-one]	≥ 7.00	≥ 7.00	6.30 to 7.00	6.30 to 7.00
CN1C(=O)C2(CCN(C(C)(C)c3nnc[nH]3)CC2)c2c1cnc1[nH]c(-c3cnn(C)c3)c(-c3ccc4c(cnn4C)c3)c21 [Example 77, 1′-(2-(4H-1,2,4-Triazol-3-yl)propan-2-yl)-6-methyl-1-(1-methyl-1H-indazol-5-yl)-2-(1-methyl-1H-pyrazol-4-yl)-3,6-dihydro-7H-spiro[dipyrrolo[2,3-b:3′,2′-d]pyridine-8,4′-piperidin]-7-one]	≥ 7.00	≥ 7.00	5.90 to 6.30	5.90 to 6.30
[2H]C([2H])([2H])n1ncc2cc(-c3c(-c4cnn5c4CCC5)[nH]c4ncc5c(c34)C3(CCN(C4(CC#N)CCCC4)CC3)C(=O)N5C)ccc21 [Example 79, 2-(1-(2-(5,6-Dihydro-4H-pyrrolo[1,2-b]pyrazol-3-yl)-6-methyl-1-(1-(methyl-d3)-1H-indazol-5-yl)-7-oxo-6,7-dihydro-3H-spiro[dipyrrolo[2,3-b:3′,2′-d]pyridine-8,4′-piperidin]-1′-yl)cyclopentyl)acetonitrile]	≥ 7.00	≥ 7.00	< 5.60	5.60 to 5.90
COC(=O)N1CCC(CC#N)(N2CCC3(CC2)C(=O)N(C)c2cnc4[nH]c(-c5cnn(C)c5)c(-c5ccc6c(cnn6C)c5)c4c23)CC1 [Example 81, Methyl 4-(cyanomethyl)-4-(6-methyl-1-(1-methyl-1H-indazol-5-yl)-2-(1-methyl-1H-pyrazol-4-yl)-7-oxo-6,7-dihydro-3H-spiro[dipyrrolo[2,3-b:3′,2′-d]pyridine-8,4′-piperidin]-1′-yl)piperidine-1-carboxylate]	≥ 7.00	≥ 7.00	5.90 to 6.30	5.90 to 6.30
